Data on 21 compounds can be found in patent US12692254B2, “Benzimidazole inhibitors of PAD enzymes” (BRISTOL-MYERS SQUIBB COMPANY, priority 2018, dated 2026).

SMILES strings stand for the structures. pIC50: −log10 of the molar value.

The assay addresses human PAD4 (hPAD4) (Homo sapiens, UniProt Q9UM07). Description: RFMS human PAD4 functional assay (rapid-fire mass spectrum). The class given is biochemical. The settings on record: 5 nM hPAD4 enzyme, 250 μM BAEE, 50 μM Calcium; 30 min preincubation, 90 min reaction at 37° C. Put shortly: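 PAD4 (10 nM) preincubated 30 min with compound (top final 50 μM), then BAEE substrate added in pH 7.5 HEPES buffer with DTT, 50 μM calcium, TPEN; 90 min at 37° C. After TCA quench, citrulline derivatized with phenyl glyoxal (4 mM final, 30 min, 37° C) and quantified by RapidFire MS against internal standard.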

Chain of human PAD4 (hPAD4) (Q9UM07 whole entry): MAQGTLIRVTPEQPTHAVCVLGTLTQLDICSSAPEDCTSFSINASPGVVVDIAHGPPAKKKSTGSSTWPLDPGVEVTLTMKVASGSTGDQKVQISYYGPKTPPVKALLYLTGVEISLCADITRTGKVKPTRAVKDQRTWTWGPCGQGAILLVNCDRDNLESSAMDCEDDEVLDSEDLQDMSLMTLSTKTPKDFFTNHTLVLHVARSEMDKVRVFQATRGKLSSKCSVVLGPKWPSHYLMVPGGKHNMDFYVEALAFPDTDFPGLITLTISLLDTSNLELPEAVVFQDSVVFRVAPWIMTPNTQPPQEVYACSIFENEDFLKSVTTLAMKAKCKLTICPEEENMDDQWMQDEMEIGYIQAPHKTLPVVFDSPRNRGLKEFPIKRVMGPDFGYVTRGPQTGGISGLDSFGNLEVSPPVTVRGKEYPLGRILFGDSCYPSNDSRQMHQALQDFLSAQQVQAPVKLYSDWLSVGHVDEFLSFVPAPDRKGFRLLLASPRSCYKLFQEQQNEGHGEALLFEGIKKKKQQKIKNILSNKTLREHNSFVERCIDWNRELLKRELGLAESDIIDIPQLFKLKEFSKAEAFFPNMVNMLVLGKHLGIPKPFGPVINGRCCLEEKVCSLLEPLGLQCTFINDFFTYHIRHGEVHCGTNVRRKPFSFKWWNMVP

For orientation: pIC50 means the negative decadic logarithm of the IC50, by convention in mol/L. Consider `COc1cc(C(=O)N2C[C@H]3CC[C@@H]2[C@@H]3N)cc2nc(-c3cc4cccnc4n3CC3CC3)n(CC3CN(C(=O)c4cnc(NCC(C)(C)O)nc4)C3)c12` [Example 121, 1-({5-[3-({5-[(1R,4R,7R)-7-amino-2-azabicyclo[2.2.1]heptane-2-carbonyl]-2-[1-(cyclopropylmethyl)-1H-pyrrolo[2,3-b]pyridin-2-yl]-7-methoxy-1H-1,3-benzodiazol-1-yl}methyl)azetidine-1-carbonyl]pyrimidin-2-yl}amino)-2-methylpropan-2-ol], for which the pIC50 is 7.02. Regarding `COc1cncc(-n2cc(Cn3c(-c4cc5ccccc5n4CC4CC4)nc4cc(C(=O)N5CC6CCC5[C@@H]6N)cc(OC)c43)cn2)c1` (stereo partly drawn) [Example 349, (7R)-2-{2-[1-(cyclopropylmethyl)-1H-indol-2-yl]-7-methoxy-1-{[1-(5-methoxypyridin-3-yl)-1H-pyrazol-4-yl]methyl}-1H-1,3-benzodiazole-5-carbonyl)-2-azabicyclo[2.2.1]heptan-7-amine], the pIC50 was 7.82. Next, `COc1cc(C(=O)N2CC3CCC2[C@@H]3N)cc2nc(-c3cc4cccnc4n3CC3CC3)n(Cc3cnn(-c4ncc(Cl)cc4F)c3)c12` (stereo partly drawn) [Example 342, ((7R)-7-amino-2-azabicyclo[2.2.1]heptan-2-yl)(1-((1-(5-chloro-3-fluoropyridin-2-yl)-1H-pyrazol-4-yl)methyl)-2-(1-(cyclopropylmethyl)-1H-pyrrolo[2,3-b]pyridin-2-yl)-7-methoxy-1H-benzo[d]imidazol-5-yl)methanone]: 7.59. Take `COc1cc(C(=O)N2C[C@H]3CC[C@@H]2[C@@H]3N)cc2nc(-c3cc4cccnc4n3C)n(CC3CN(c4cncnc4C#N)C3)c12` [Example 60, 5-[3-({5-[(1R,4R,7R)-7-amino-2-azabicyclo[2.2.1]heptane-2-carbonyl]-7-methoxy-2-{1-methyl-1H-pyrrolo[2,3-b]pyridin-2-yl}-1H-1,3-benzodiazol-1-yl}methyl)azetidin-1-yl]pyrimidine-4-carbonitrile]: the pIC50 is 6.77. With `COc1cc(C(=O)N2C[C@H](N)C[C@@H](F)C2)cc2nc(-c3cc4cccnc4n3CC3CC3)n(Cc3cnn(-c4cccc(Cl)n4)c3)c12` [Example 389, (3R,5R)-1-(1-{[1-(6-chloropyridin-2-yl)-1H-pyrazol-4-yl]methyl}-2-[1-(cyclopropylmethyl)-1H-pyrrolo[2,3-b]pyridin-2-yl]-7-methoxy-1H-1,3-benzodiazole-5-carbonyl)-5-fluoropiperidin-3-amine], the negative-log IC50 (pIC50) was 7.37. `COc1cc(C(=O)N2CC3CCC2[C@@H]3N)cc2nc(-c3cc4cccnc4n3CC3CC3)n(CC3(C)CN(C(=O)c4ccccc4)C3)c12` (stereo partly drawn) [Example 444, (7R)-2-{1-[(1-benzoyl-3-methylazetidin-3-yl)methyl]-2-[1-(cyclopropylmethyl)-1H-pyrrolo[2,3-b]pyridin-2-yl]-7-methoxy-1H-1,3-benzodiazole-5-carbonyl}-2-azabicyclo[2.2.1]heptan-7-amine]: the pIC50 is 7.37. Under `COc1cc(C(=O)N2C[C@H]3CC[C@@H]2[C@@H]3N)cc2nc(-c3cc4ccccc4n3CC3CC3)n(CC3CN(C(=O)c4ccc(C)cc4)C3)c12` [Example 156, (1R,4R,7R)-2-{2-[1-(cyclopropylmethyl)-1H-indol-2-yl]-7-methoxy-1-{[1-(4-methylbenzoyl)azetidin-3-yl]methyl}-1H-1,3-benzodiazole-5-carbonyl}-2-azabicyclo[2.2.1]heptan-7-amine] stands 7.66.

`COc1cc(C(=O)N2CC3CCC2[C@@H]3N)cc2nc(-c3cc4ccccc4n3CC3CC3)n(Cc3cnn(-c4cc(F)cnc4O)c3)c12` (stereo partly drawn) [Example 376, 3-[4-({5-[(7R)-7-amino-2-azabicyclo[2.2.1]heptane-2-carbonyl]-2-[1-(cyclopropylmethyl)-1H-indol-2-yl]-7-methoxy-1H-1,3-benzodiazol-1-yl}methyl)-1H-pyrazol-1-yl]-5-fluoropyridin-2-ol]: the pIC50 is 7.43.

Take `COc1cc(C(=O)N2CC3CCC2[C@@H]3N)cc2nc(-c3cc4cccnc4n3CC3CC3)n(C3CN(S(=O)(=O)c4ccc(Cl)nc4)C3)c12` (stereo partly drawn) [Example 337]: the pIC50 is 6.32. Next, `COc1cc(C(=O)N2CC3CCC2[C@@H]3N)cc2nc(-c3csc4ccc(Cl)cc34)n(CC3CN(c4ccnc(C(N)=O)n4)C3)c12` (stereo partly drawn) [Example 320, 4-[3-({5-[(1R,4R,7R)-7-amino-2-azabicyclo[2.2.1]heptane-2-carbonyl]-2-(5-chloro-1-benzothiophen-3-yl)-7-methoxy-1H-1,3-benzodiazo1-1-yl}methyl)azetidin-1-yl]pyrimidine-2-carboxamide]: 5.87; `COc1cc(C(=O)N2C[C@H]3CC[C@@H]2[C@@H]3N)cc2nc(-c3cc4cccnc4n3CC3CC3)n(C[C@H]3CCN(c4nccnc4C#N)C3)c12` [Example 202, 3-[(3S)-3-({5-[(1R,4R,7R)-7-amino-2-azabicyclo[2.2.1]heptane-2-carbonyl]-2-[1-(cyclopropylmethyl)-1H-pyrrolo[2,3-b]pyridin-2-yl]-7-methoxy-1H-1,3-benzodiazol-1-yl}methyl)pyrrolidin-1-yl]pyrazine-2-carbonitrile]: 7.68. Under `COc1cc(C(=O)N2C[C@H]3CC[C@@H]2[C@@H]3N)cc2nc(-c3cc4ccccc4n3C)n(CC3CN(c4cncc(C#N)c4)C3)c12` [Example 22, 5-[3-({5-[(1R,4R,7R)-7-amino-2-azabicyclo[2.2.1]heptane-2-carbonyl]-7-methoxy-2-(1-methyl-1H-indol-2-yl)-1H-1,3-benzodiazol-1-yl}methyl)azetidin-1-yl]pyridine-3-carbonitrile] stands 7.22. Next, `COc1cc(C(=O)N2C[C@H]3CC[C@@H]2[C@@H]3N)cc2nc(-c3cc4cccnc4n3CC3CC3)n(C[C@H]3CCN(c4cncc(C#N)n4)C3)c12` [Example 203, 6-[(3S)-3-({5-[(1R,4R,7R)-7-amino-2-azabicyclo[2.2.1]heptane-2-carbonyl]-2-[1-(cyclopropylmethyl)-1H-pyrrolo[2,3-b]pyridin-2-yl]-7-methoxy-1H-1,3-benzodiazol-1-yl}methyl)pyrrolidin-1-yl]pyrazine-2-carbonitrile]: 7.64; `COc1cc(C(=O)N2C[C@H]3CC[C@@H]2[C@@H]3N)cc2nc(-c3cc4cccnc4n3CC3CC3)n(C3CN(C(=O)c4ccnc(N)n4)C3)c12` [Example 101, (1R,4R,7R)-2-{1-[1-(2-aminopyrimidine-4-carbonyl)azetidin-3-yl]-2-[1-(cyclopropylmethyl)-1H-pyrrolo[2,3-b]pyridin-2-yl]-7-methoxy-1H-1,3-benzodiazole-5-carbonyl}-2-azabicyclo[2.2.1]heptan-7-amine]: 6.90.

Consider `COc1cc(C(=O)N2CC3CCC2[C@@H]3N)cc2nc(-c3cc4cccnc4n3CC3CC3)n(Cc3cnn(-c4ccncc4)c3)c12` (stereo partly drawn) [Example 409, (7R)-2-{2-[1-(cyclopropylmethyl)-1H-pyrrolo[2,3-b]pyridin-2-yl]-7-methoxy-1-{[1-(pyridin-4-yl)-1H-pyrazol-4-yl]methyl}-1H-1,3-benzodiazole-5-carbonyl)-2-azabicyclo[2.2.1]heptan-7-amine], for which the pIC50 was 7.09. Under `COc1cc(C(=O)N2C[C@H]3CC[C@@H]2[C@@H]3N)cc2nc(-c3cc4cccnc4n3CC3CC3)n(CC3CN(c4ccnc(C5CC5)n4)C3)c12` [Example 105, (1R,4R,7R)-2-{2-[1-(cyclopropylmethyl)-1H-pyrrolo[2,3-b]pyridin-2-yl]-1-{[1-(2-cyclopropylpyrimidin-4-yl)azetidin-3-yl]methyl}-7-methoxy-1H-1,3-benzodiazole-5-carbonyl}-2-azabicyclo[2.2.1]heptan-7-amine] stands 7.51; under `COc1cc(C(=O)N2C[C@H](N)C[C@@H](F)C2)cc2nc(-c3cc4cccnc4n3CC3CC3)n(Cc3cnn(-c4cncc(C#N)c4)c3)c12` [Example 391, 5-[4-({5-[(3R,5R)-3-amino-5-fluoropiperidine-1-carbonyl]-2-[1-(cyclopropylmethyl)-1H-pyrrolo[2,3-b]pyridin-2-yl]-7-methoxy-1H-1,3-benzodiazol-1-yl}methyl)-1H-pyrazol-1-yl]pyridine-3-carbonitrile], 7.33; under `COc1cc(C(=O)N2C[C@H]3CC[C@@H]2[C@@H]3N)cc2nc(-c3cc4cccnc4n3CC3CC3)n(CC3CN(c4cccnc4C#N)C3)c12` [Example 36, 3-[3-({5-[(1R,4R,7R)-7-amino-2-azabicyclo[2.2.1]heptane-2-carbonyl]-2-[1-(cyclopropylmethyl)-1H-pyrrolo[2,3-b]pyridin-2-yl]-7-methoxy-1H-1,3-benzodiazol-1-yl}methyl)azetidin-1-yl]pyridine-2-carbonitrile], 7.04.

`COc1cc(C(=O)N2C[C@H]3CC[C@@H]2[C@@H]3N)cc2nc(-c3cc4cccnc4n3CC3CC3)n(CC3CN(c4ncccn4)C3)c12` [Example 30, (1R,4R,7R)-2-{2-[1-(cyclopropylmethyl)-1H-pyrrolo[2,3-b]pyridin-2-yl]-7-methoxy-1-{[1-(pyrimidin-2-yl)azetidin-3-yl]methyl}-1H-1,3-benzodiazole-5-carbonyl}-2-azabicyclo[2.2.1]heptan-7-amine]: the pIC50 was 7.08. For `COc1cc(C(=O)N2C[C@H]3CC[C@@H]2[C@@H]3N)cc2nc(-c3cc4cccnc4n3C)n(C[C@H]3CCN(c4ccnc(C#N)n4)C3)c12` [Example 210, 4-[(3S)-3-({5-[(1R,4R,7R)-7-amino-2-azabicyclo[2.2.1]heptane-2-carbonyl]-7-methoxy-2-{1-methyl-1H-pyrrolo[2,3-b]pyridin-2-yl}-1H-1,3-benzodiazol-1-yl}methyl)pyrrolidin-1-yl]pyrimidine-2-carbonitrile], the pIC50 was 7.12. Next, `COc1cc(C(=O)N2C[C@H]3CC[C@@H]2[C@@H]3N)cc2nc(-c3cc4cccnc4n3CC3CC3)n(C3CNC3)c12` [Example 307, (1R,4R,7R)-2-[1-(azetidin-3-yl)-2-[1-(cyclopropylmethyl)-1H-pyrrolo[2,3-b]pyridin-2-yl]-7-methoxy-1H-1,3-benzodiazole-5-carbonyl]-2-azabicyclo[2.2.1]heptan-7-amine]: 6.53.
